Where “and” joins values, the source holds several entries; their conditions need not be identical. Equal values may be shown once.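 Growth conditions: 96-well plates. Treatment: test compound, 48 hours, 5 concentrations. Analysis: linear interpolation between bracketing concentrations; unreached endpoints set to highest concentration. GI50 marks 50% less growth.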 Calls of active or inactive are those of the source. Cut-off read from the data, not from the text of the source: active = GI50 up to about 1.1 µM and inactive = higher.
Experiments:
Test in all cases: DTP human tumour cell line panel, 48 h
XF498 = tested on: XF498
SF-295 = tested on: SF-295
Malme-3M = tested on: Malme-3M
NCI-H226 = tested on: NCI-H226
HCT-15 = tested on: HCT-15
OVCAR-8 = tested on: OVCAR-8
OVCAR-3 = tested on: OVCAR-3
DMS-114 = tested on: DMS-114
SF-539 = tested on: SF-539
NCI-H522 = tested on: NCI-H522
SK-MEL-5 = tested on: SK-MEL-5
HOP-62 = tested on: HOP-62
SW-620 = tested on: SW-620
KM12 = tested on: KM12
RXF 393 = tested on: RXF 393
HT-29 = tested on: HT-29
RPMI-8226 = tested on: RPMI-8226
KM-20L2 = tested on: KM-20L2
UACC-62 = tested on: UACC-62
SK-MEL-2 = tested on: SK-MEL-2
EKVX = tested on: EKVX
U-251 = tested on: U-251
COLO 205 = tested on: COLO 205
A498 = tested on: A498
SF-268 = tested on: SF-268
786-0 = tested on: 786-0
NCI-H23 = tested on: NCI-H23
SK-MEL-28 = tested on: SK-MEL-28
NCI-H460 = tested on: NCI-H460
OVCAR-5 = tested on: OVCAR-5
SN12C = tested on: SN12C
M14 = tested on: M14
LOX IMVI = tested on: LOX IMVI
CAKI-1 = tested on: CAKI-1
DMS-273 = tested on: DMS-273
ACHN = tested on: ACHN
HCT-116 = tested on: HCT-116
DU-145 = tested on: DU-145
CCRF-CEM = tested on: CCRF-CEM
UACC-257 = tested on: UACC-257
MDA-MB-435 = tested on: MDA-MB-435
Hs-578T = tested on: Hs-578T
HOP-92 = tested on: HOP-92
MOLT-4 = tested on: MOLT-4
M19-MEL = tested on: M19-MEL
NCI/ADR-RES = tested on: NCI/ADR-RES
UO-31 = tested on: UO-31
BT-549 = tested on: BT-549
SR = tested on: SR
HL-60 = tested on: HL-60
SNB-75 = tested on: SNB-75
SNB-19 = tested on: SNB-19
T47D = tested on: T47D
PC-3 = tested on: PC-3
K562 = tested on: K562
OVCAR-4 = tested on: OVCAR-4
HOP-18 = tested on: HOP-18
MDA-N = tested on: MDA-N
IGROV-1 = tested on: IGROV-1
MCF7 = tested on: MCF7
TK-10 = tested on: TK-10
DLD-1 = tested on: DLD-1
SK-OV-3 = tested on: SK-OV-3
A549 = tested on: A549
MDA-MB-231 = tested on: MDA-MB-231
HCC 2998 = tested on: HCC 2998
LXFL 529 = tested on: LXFL 529
SNB-78 = tested on: SNB-78

`CC1(O)CC2C(CC1SCc1ccccc1)C2(C)C` (centres undefined) was tested, and the GI50 (XF498) was 20.5 µM (inactive) and 15.2 µM (inactive), the GI50 (SF-295) was 28.2 µM (inactive) and the GI50 (Malme-3M) was 22 µM (inactive) and 16.3 µM (inactive). For the same compound, the GI50 (NCI-H226) was 21.5 µM (inactive) and 16 µM (inactive), the GI50 (HCT-15) was 16.9 µM and 22.3 µM and the GI50 (OVCAR-8) was 16.5 µM (inactive) and 29.4 µM (inactive). The GI50 (OVCAR-3) was 12.3 µM (inactive) and 16.9 µM (inactive), the GI50 (DMS-114) was 14.5 µM (inactive) and the GI50 (SF-539) was 28.8 µM (inactive) and 19.3 µM (inactive). The GI50 (NCI-H522) was 13.7 µM (inactive) and 11.9 µM (inactive), the GI50 (SK-MEL-5) was 23.6 µM (inactive) and 13.1 µM (inactive) and the GI50 (HOP-62) was 24.9 µM (inactive) and 16.6 µM (inactive). The GI50 (SW-620) was 17.5 µM (inactive) and 21.7 µM (inactive), the GI50 (KM12) was 19.3 µM (inactive) and 25.3 µM (inactive) and the GI50 (RXF 393) was 15.3 µM (inactive) and 18.5 µM (inactive). The GI50 (HT-29) was 16.4 µM (inactive) and 23.1 µM (inactive), the GI50 (RPMI-8226) was 11.9 µM (inactive) and 19.8 µM (inactive) and the GI50 (KM-20L2) was 20.6 µM (inactive) and 26.6 µM (inactive). The GI50 (UACC-62) was 32.4 µM (inactive) and 19.3 µM (inactive), the GI50 (SK-MEL-2) was 17.3 µM (inactive) and 11.4 µM (inactive) and the GI50 (EKVX) was 16.7 µM (inactive) and 29.7 µM (inactive). The GI50 (U-251) was 16 µM (inactive) and 21.2 µM (inactive), the GI50 (COLO 205) was 20 µM (inactive) and 16.9 µM (inactive) and the GI50 (A498) was 18.3 µM (inactive) and 28.1 µM (inactive). For the same compound, the GI50 (SF-268) was 25.9 µM (inactive) and 18.7 µM (inactive), the GI50 (786-0) was 15.8 µM (inactive) and 21.7 µM (inactive) and the GI50 (NCI-H23) was 23.3 µM (inactive) and 14.2 µM (inactive). The GI50 (SK-MEL-28) was 21 µM (inactive) and 29.3 µM (inactive), the GI50 (NCI-H460) was 14.6 µM (inactive) and 22.9 µM (inactive) and the GI50 (OVCAR-5) was 17.9 µM (inactive) and 17.1 µM (inactive). For the same compound, the GI50 (SN12C) was 16.1 µM (inactive) and 23.2 µM (inactive), the GI50 (M14) was 30.1 µM (inactive) and 15.5 µM (inactive) and the GI50 (LOX IMVI) was 17.1 µM (inactive) and 15.5 µM (inactive). The GI50 (CAKI-1) was 15.8 µM (inactive) and 12.5 µM (inactive), the GI50 (DMS-273) was 14.2 µM (inactive) and 17.9 µM (inactive) and the GI50 (ACHN) was 16.8 µM (inactive) and 18.2 µM (inactive). The GI50 (HCT-116) was 16.6 µM (inactive) and 21.2 µM (inactive).
In the case of `CCCCCCCC(CC(=O)NC(CO)C(=O)NC(CO)CC(C)C)OC(=O)CC(CCCCCCC)OC(=O)CC(CCCCCCC)OC1OC(C)C(O)C(OC2OC(C)C(O)C(O)C2O)C1O` (centres undefined), the GI50 (DU-145) is reported as 12.6 µM (inactive), the GI50 (CCRF-CEM) is reported as 3.37 µM (inactive) and the GI50 (UACC-257) is reported as 12.3 µM (inactive). For the same compound, the GI50 (MDA-MB-435) was 6.52 µM (inactive), the GI50 (SF-295) was 14 µM (inactive) and the GI50 (Hs-578T) was 8.45 µM (inactive). For the same compound, the GI50 (Malme-3M) was 9.66 µM (inactive), the GI50 (HOP-92) was 12 µM (inactive) and the GI50 (NCI-H226) was 16.6 µM (inactive). The GI50 (HCT-15) was 19.7 µM, the GI50 (OVCAR-8) was 16.3 µM (inactive) and the GI50 (OVCAR-3) was 13.9 µM (inactive). The GI50 (DMS-114) was 3.83 µM (inactive), the GI50 (SF-539) was 11.7 µM (inactive) and the GI50 (MOLT-4) was 3.06 µM (inactive). For the same compound, the GI50 (NCI-H522) was 13 µM (inactive), the GI50 (M19-MEL) was 10.4 µM (inactive) and the GI50 (SK-MEL-5) was 7.83 µM (inactive). The GI50 (NCI/ADR-RES) was 17.9 µM (inactive), the GI50 (HOP-62) was 18.9 µM (inactive) and the GI50 (UO-31) was 16.6 µM (inactive). The GI50 (SW-620) was 15.7 µM (inactive), the GI50 (BT-549) was 14.5 µM (inactive) and the GI50 (SR) was 3.05 µM (inactive). For the same compound, the GI50 (KM12) was 11.7 µM (inactive), the GI50 (RXF 393) was 13.7 µM (inactive) and the GI50 (HL-60) was 3.26 µM (inactive). The GI50 (SNB-75) was 10.5 µM (inactive), the GI50 (HT-29) was 9.16 µM (inactive) and the GI50 (RPMI-8226) was 2.37 µM (inactive). For the same compound, the GI50 (KM-20L2) was 15.7 µM (inactive), the GI50 (UACC-62) was 14.1 µM (inactive) and the GI50 (SNB-19) was 12.2 µM (inactive). The GI50 (T47D) was 10.9 µM (inactive), the GI50 (PC-3) was 12.7 µM (inactive) and the GI50 (K562) was 5.12 µM (inactive). The GI50 (SK-MEL-2) was 3.76 µM (inactive), the GI50 (OVCAR-4) was 12.6 µM (inactive) and the GI50 (HOP-18) was 17.6 µM (inactive). The GI50 (EKVX) was 24.6 µM (inactive), the GI50 (MDA-N) was 6.92 µM (inactive) and the GI50 (U-251) was 11.1 µM (inactive). The GI50 (COLO 205) was 8.87 µM (inactive), the GI50 (IGROV-1) was 12.6 µM (inactive) and the GI50 (A498) was 18.7 µM (inactive). The GI50 (SF-268) was 8.41 µM (inactive), the GI50 (MCF7) was 0.614 µM (active) and the GI50 (786-0) was 14.3 µM (inactive). The GI50 (NCI-H23) was 14.3 µM (inactive), the GI50 (SK-MEL-28) was 7.94 µM (inactive) and the GI50 (NCI-H460) was 6.73 µM (inactive). For the same compound, the GI50 (TK-10) was 16.5 µM (inactive), the GI50 (DLD-1) was 16 µM (inactive) and the GI50 (OVCAR-5) was 13.1 µM (inactive). The GI50 (SK-OV-3) was 17.6 µM (inactive), the GI50 (SN12C) was 14.5 µM (inactive) and the GI50 (A549) was 15.8 µM (inactive). For the same compound, the GI50 (M14) was 5.05 µM (inactive), the GI50 (LOX IMVI) was 5.28 µM (inactive) and the GI50 (MDA-MB-231) was 13.2 µM (inactive). The GI50 (HCC 2998) was 1.52 µM (inactive), the GI50 (CAKI-1) was 18.4 µM (inactive) and the GI50 (LXFL 529) was 4.84 µM (inactive). For the same compound, the GI50 (DMS-273) was 10.9 µM (inactive), the GI50 (SNB-78) was 20.2 µM (inactive) and the GI50 (ACHN) was 12.2 µM (inactive). For the same compound, the GI50 (HCT-116) was 7.53 µM (inactive).

Source: ChEMBL document CHEMBL1201862, “PubChem BioAssay data set” (2004)
